According to article PMC12973313 (Chemical Science, 2026):
Values after ≈ are worked out from the molar mass of the structure shown.

Assay: Kinetic solubility in PBS pH 7.4
Format: physicochemical
Conditions: upper limit 300 µM

For O=C(Nc1ccc(C(F)(F)F)cc1)N[C@H](Cc1ccccc1)C(=O)O [SSA 9], the solubility at 2 h (phosphate buffered saline, 25 °C, pH 7.4, aqueous buffer, kinetic from dmso stock) was 271 µM (≈ 95.5 µg/mL) and the “Solubility in PBS pH 7.4 (μM)” value (25°C, 2 hours) was 271 μM.
